These results are taken from US10705094B2, “TNF receptor signaling modulator assay” (UCB Biopharma SRL, priority 2015, dated 2020).

Assay [1] deals with TNFα-induced IL-8 production. Kind of assay: Inhibition of TNFα-induced IL-8 production in human monocytes. The assay is classed as cell-based. To be noted: Monocyte, 18 h. How it is done: Venous blood from healthy donors was collected by venupuncture into sodium/heparin containing tubes (BD Biosciences). Peripheral blood mononuclear cells (PBMC) were isolated by density gradient centrifugation with Ficoll Paque (Amersham Biosciences). Briefly, 10 mL of blood was diluted 1:1 (v/v) with RPMI 1640 (Gibco) and carefully layered onto 20 mL Ficoll Paque. Cells were spun down for 30 minutes (min) at 470 g, the PBMC collected, washed once in RPMI 1640 and any remaining contaminating erythrocytes lysed in erythrocyte lysis buffer (1 g/L KHCO3, 8.3 g/L NH4Cl, 0.0372 g/L EDTA). Isolation of monocytes from the PBMC was performed using CD14+ Magnetic MicroBeads (Miltenyi Biotec) according to the manufacturer's instructions. Briefly, PBMC were resuspended in Dulbecco's modified Eagle's medium containing 5% BSA (Sigma) and 2 mM EDTA (Sigma) at 1×10^7 cells/ml. 25 μL of CD14 MicroBeads per 10^7 total cells were incubated for 15 min at room temperature. The magnetic separation was performed using a LS column (Miltenyi Biotec). […]
Human IL-8 was measured in the cell culture supernatants using enzyme-linked immunosorbent assay (ELISA) kits from R&D Systems Ltd. according to the manufacturer's instructions. […] Plates were read at a wavelength of 630 nm with correction at 470 nm.

In another assay the target is T1, CD40L (Homo sapiens, UniProt P29965).
T1 sequence (P29965 113-261 limits assumed): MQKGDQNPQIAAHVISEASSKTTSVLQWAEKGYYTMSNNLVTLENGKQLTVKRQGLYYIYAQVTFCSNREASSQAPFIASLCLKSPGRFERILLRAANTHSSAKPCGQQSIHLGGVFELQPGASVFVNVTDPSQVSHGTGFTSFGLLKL
Kind of assay: Mass spectrometric analysis of CD40L trimer stabilisation. The assay is classed as binding. To be noted: in the presence of DMSO. From the text:
Mass spectrometric analysis has shown that CD40L, which also forms homotrimers, is destabilised by DMSO, resulting in a reduced amount of the trimeric CD40L. The assay protocol used was the same as that described in Example 3 for TNFα, but using CD40L instead.

Assay [2] has as its system activation of NF-κB by IL-1β. Kind of assay: HEK-293 NF-κB SEAP reporter gene assay, IL-1β counterscreen. It is filed as cell-based. To be noted: Homo sapiens, HEK293; HEK-293 reporter cells, IL-1β 0.5 ng/ml. On the procedure:
(§1) Stimulation of HEK-293 cells by TNF-alpha leads to activation of the NF-kB pathway. The reporter cell line used to determine TNF alpha activity was purchased from Invivogen. HEK-Blue™ CD40L, is a stable transfectant expressing SEAP (secreted alkaline phosphatase) under the control of the IFN-beta minimal promoter fused to 5 NF-kB binding sites. Secretion of SEAP by these cells is stimulated in a concentration dependent manner by TNF-alpha (0.5 ng/ml), IL-1-beta (0.5 ng/ml) and an activating anti-human TNFR1 antibody (300 ng/ml).
(§2) Compounds were diluted from 10 mM DMSO stocks (final assay concentration 0.3%) to generate a 10 point 3 fold serial dilution curve (30,000 nM to 2 nM final concentration). They were mixed with stimulating ligand for 1 hour in a 384 well microtitre plate. Freshly thawed and washed cells were added to the compound/stimulus mixture and further incubated for 18 hours. SEAP activity was determined in the supernatant using the colorimetric substrate Quanti-Blue™ (Invivogen).
(§3) Percentage inhibitions for compound dilutions were calculated between a DMSO control and maximum inhibition (by excess control compound) and an IC50 calculated using xlfit (4 parameter logistic model) in Activity Base.
(§4) The specific activity of each compound against the TNF-alpha response was compared to that seen with the counterscreens (IL-1beta and anti-human TNFR1 antibody).
(Reporter assays use an easily measured gene product as a stand-in for the process of interest.)

The test system of assay [3] is activation of NF-κB by TNFα. Kind of assay: HEK-293 NF-κB SEAP reporter gene assay, TNFα stimulus. It is filed as cell-based. To be noted: Homo sapiens, HEK293; HEK-293 reporter cells, TNFα 0.5 ng/ml. How it is done:
as §1
Compounds were diluted from 10 mM DMSO stocks (final assay concentration 0.3%) to generate a 10 point 3 fold serial dilution curve (30,000 nM to 2 nM final concentration). They were mixed with stimulating ligand for 1 hour in a 384 well microtitre plate. […] SEAP activity was determined in the supernatant using the colorimetric substrate Quanti-Blue™ (Invivogen).
Percentage inhibitions for compound dilutions were calculated between a DMSO control and maximum inhibition (by excess control compound) and an IC50 calculated using xlfit (4 parameter logistic model) in Activity Base. […]
C87 was preincubated with TNFα for 1 hour prior to the addition to HEK-293 cells stably transfected with SEAP under the control of NFκB. […] The assay was incubated overnight before inhibition was measured compared to 100% blocking by a control compound. […]

The subject of assay [4] is activation of NF-κB by activating anti-human TNFR1 antibody. Kind of assay: HEK-293 NF-κB SEAP reporter gene assay, activating TNF-R1 antibody counterscreen. It is filed as cell-based. The settings on record: HEK293, HEK-293 reporter cells, antibody 300 ng/ml. On the procedure:
as §1, §2, §3, §4

Each structure is given as a SMILES string.

One may read the IC50 as the concentration that inhibits the measured activity by half. A high value points to weaker potency. Turning to `Cc1ccc(C)c(Cn2c(C(O)c3ccncc3)nc3ccccc32)c1` (centres unmarked) [Compound (1), [1-(2,5-Dimethylbenzyl)-1H-benzimidazol-2-yl](pyridin-4-yl)methanol], the IC50 in assay [1] worked out at 454 nM. Moreover, the “stabilisation of trimeric CD40L” value on CD40L is “stabilise trimeric CD40L”.

On to `Cc1ccc(C)c(Cn2c(C(O)c3ccncc3)nc3ccc(-c4cnn(C)c4)cc32)c1` (centres unmarked) [Compound (2), [1-(2,5-Dimethylbenzyl)-6-(1-methyl-1H-pyrazol-4-yl)-1H-benzimidazol-2-yl](pyridin-4-yl)methanol], for which the results for the IC50 in assay [2], in assay [3] and in assay [4] were over 30 µM, 113 nM and over 30 µM, respectively.
